Reference: the supplement of paper PMC10307832

Legend:
Assay in all cases: relative viability (nuclei count vs DMSO), 5 days (fraction); higher = more cells survive
[1] = compound: N#CC[C@H](C1CCCC1)n1cc(-c2ncnc3[nH]ccc23)cn1 [Ruxolitinib] + O=C(c1cc(Cc2n[nH]c(=O)c3ccccc23)ccc1F)N1CCN(C(=O)C2CC2)CC1 [Olaparib] (partner 8 µM)
Method in brief: (§1)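 A single step with final 0.05% Triton X-100, 1% formaldehyde and 1 ug/ml Hoechst fixed the cells and stained nuclei 5 days after treatment. Lung cancer cell lines in 1536-well plates had been treated by pin tool the day after seeding with one drug alone or a fixed anchor-drug dose plus five library-drug doses (not always all listed) in √10 steps, and nuclei were counted on 4× images. Relative viability is the ratio of nuclei in treated wells to nuclei in vehicle wells, taken as the median of duplicate plates.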

[2] = compound: CS(=O)(=O)c1ccc(C(=O)Nc2ccc(Cl)c(-c3ccccn3)c2)c(Cl)c1 [Vismodegib] + CC(=O)Nc1cccc(-n2c(=O)n(C3CC3)c(=O)c3c(Nc4ccc(I)cc4F)n(C)c(=O)c(C)c32)c1 [Trametinib] (partner 0.02 µM)
Method in brief: as §1

[3] = compound: CS(=O)(=O)c1ccc(-c2cnc(N)c(C(=O)Nc3ccccc3)n2)cc1 [VE-821] + CC(=O)Nc1cccc(-n2c(=O)n(C3CC3)c(=O)c3c(Nc4ccc(I)cc4F)n(C)c(=O)c(C)c32)c1 [Trametinib] (partner 0.02 µM)
Method in brief: as §1

[4] = compound: N#CC[C@H](C1CCCC1)n1cc(-c2ncnc3[nH]ccc23)cn1 [Ruxolitinib] + NC(=O)Nc1cc(-c2cccc(F)c2)sc1C(=O)N[C@H]1CCCNC1 [AZD7762] (partner 0.2 µM)
Method in brief: as §1

| Cell Line | relative viability ([1]; first compound 0.253 µM) | relative viability ([1]; first compound 0.8 µM) | relative viability ([1]; first compound 2.53 µM) | relative viability ([1]; first compound 8 µM) | relative viability ([2]; first compound 0.08 µM) | relative viability ([2]; first compound 0.253 µM) | relative viability ([2]; first compound 0.8 µM) | relative viability ([2]; first compound 2.53 µM) | relative viability ([2]; first compound 8 µM) | relative viability ([3]; first compound 0.08 µM) | relative viability ([3]; first compound 0.253 µM) | relative viability ([3]; first compound 0.8 µM) | relative viability ([3]; first compound 2.53 µM) | relative viability ([3]; first compound 8 µM) | relative viability ([4]; first compound 0.253 µM) | relative viability ([4]; first compound 0.8 µM) | relative viability ([4]; first compound 2.53 µM) | relative viability ([4]; first compound 8 µM) | relative viability ([4]; first compound 0.08 µM) | relative viability ([1]; first compound 0.08 µM) |
| --- | --- | --- | --- | --- | --- | --- | --- | --- | --- | --- | --- | --- | --- | --- | --- | --- | --- | --- | --- | --- |
| HCC-827 | 0.469 | 0.469 | 0.49 | 0.594 | 0.519 | 0.491 | 0.528 | 0.522 | 0.509 | 0.613 | 0.524 | 0.565 | 0.52 | 0.499 | 0.178 | 0.238 | 0.236 | 0.308 | – | – |
| HOP-62 | 0.389 | 0.381 | 0.315 | 0.416 | 0.357 | 0.379 | 0.37 | 0.354 | 0.376 | 0.402 | 0.413 | 0.351 | 0.403 | 0.429 | 0.796 | 0.564 | 0.627 | 0.704 | 0.437 | – |
| IA-LM | 0.867 | 0.805 | 0.819 | 0.669 | – | – | – | – | – | – | – | – | – | – | – | – | – | – | – | 0.98 |
| LC-2-ad | 0.743 | 0.792 | 0.801 | 0.624 | 0.892 | 0.834 | 0.894 | 0.834 | 0.898 | 0.985 | 0.886 | 0.879 | 0.912 | 0.956 | 0.865 | 0.821 | 0.792 | 0.693 | 0.875 | 0.797 |
| LCLC-97TM1 | 0.292 | 0.331 | 0.417 | 0.295 | 0.207 | 0.166 | 0.205 | 0.173 | 0.208 | 0.225 | 0.152 | 0.194 | 0.227 | 0.217 | 0.267 | 0.317 | 0.287 | 0.53 | 0.401 | 0.367 |
| LCLC-103H | 0.753 | 0.786 | 0.837 | 0.758 | 0.703 | 0.666 | 0.65 | 0.612 | 0.71 | 0.748 | 0.662 | 0.675 | 0.68 | 0.663 | 0.783 | 0.798 | 0.836 | 0.614 | 0.829 | 0.774 |
| LK-2 | 0.701 | 0.893 | 0.724 | 0.52 | 0.645 | 0.726 | 0.628 | 0.831 | 0.615 | 1.02 | 0.775 | 0.734 | 0.897 | 0.818 | 0.489 | 0.815 | 0.481 | 0.648 | 0.4 | 0.553 |
| LOU-NH91 | 0.895 | 0.97 | 0.853 | 0.813 | 0.762 | 0.804 | 0.8 | 0.786 | 0.772 | 0.813 | 0.784 | 0.776 | 0.821 | 0.752 | 0.664 | 0.797 | 0.74 | 0.73 | 0.757 | 0.757 |
| LU99A | 0.277 | 0.268 | 0.237 | 0.224 | 0.586 | 0.524 | 0.536 | 0.531 | 0.539 | 0.532 | 0.541 | 0.572 | 0.528 | 0.29 | 0.402 | 0.394 | 0.406 | 0.477 | 0.336 | 0.272 |
